According to patent publication US20090062537A1, “N-Formyl Hydrozyamine Compounds” (priority 2006, published 2009):
Positions count from the first letter of the chain named. Values after ≈ are worked out from the molar mass of the structure shown.

What was measured:
[1] = target: T1, Streptococcus pneumoniae peptide deformylase, wild type (W.T.) (Streptococcus pneumoniae serotype 4, UniProt Q9F2F0); experiment: Inhibition of S. pneumoniae peptide deformylase activity, wild type enzyme; type: biochemical; details: PDF W.T.
T1 sequence (Q9F2F0 1-203): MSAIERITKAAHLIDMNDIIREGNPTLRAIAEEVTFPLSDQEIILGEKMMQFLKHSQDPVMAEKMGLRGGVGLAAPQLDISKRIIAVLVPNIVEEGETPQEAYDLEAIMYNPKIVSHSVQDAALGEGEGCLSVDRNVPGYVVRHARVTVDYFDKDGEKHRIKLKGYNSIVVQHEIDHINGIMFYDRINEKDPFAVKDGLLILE
Procedure: (§1) A PDF/FDH coupled assay (Lazennec et al., Anal. Biochem., Vol. 224, pp. 180-182 (1997)) is used. In this coupled assay, the formate released by PDF from its substrate fMAS is oxidized by the coupling enzyme FDH, reducing one molecule of NAD^+ to NADH, which causes an increase in absorption at 340 nm. All assays are carried out at room temperature in a buffer of 50 mM HEPES, pH 7.2, 10 mM NaCl, 0.2 mg/mL BSA, In half-area 96-well microtiter plates (Corning). The reaction is initiated by adding a mixture of 0.5 Unit/mL FDH, 1 mM NAD^+, and fMAS at the desired concentration. To determine IC50 (the concentration needed to inhibit 50% of enzyme activity) values, PDF is pre-incubated for 10 minutes with varying concentrations of the inhibitor, and the deformylation reaction is initiated by the addition of reaction mixture containing 4 mM fMAS. The initial reaction velocity, y, is measured as the initial rate of absorption increase at […] using a SpectraMax plate reader (Molecular Devices, Sunnyvale, Calif.). The Inhibitor concentration [In] at which 50% of the enzyme activity is inhibited, IC50, is calculated using the following formula:
(§2) where yo is the reaction velocity in the absence of inhibitor. Solving this equation for IC50 at the [In] when y=yo/2 yields IC50. The IC50 is calculated based on a nonlinear least-square regression fit using a commercial software package (Deltapoint, Inc., Chicago, Ill.).
(§3) Peptide deformylase activity is essential for growth of S. pneumoniae. The mutants that are selected on NVP-LBM415 were not compromised for growth in vitro, therefore the mutations in defB that confer resistance to these compounds would not be expected to dramatically alter enzymatic activity. To test this hypothesis, the kinetics of peptide deformylase activity are determined using the substrate f-Met-Ala-Ser.
(§4) To investigate further, the IC50s and MICs of specific pairs of compounds differing only in this feature are determined.

[2] = target: T2, Streptococcus pneumoniae peptide deformylase G70V mutant (Streptococcus pneumoniae serotype 4, UniProt Q9F2F0, G70V); experiment: Inhibition of S. pneumoniae peptide deformylase activity, G70V mutant enzyme; type: biochemical; details: PDF G70V
T2 sequence (Q9F2F0 1-203 G70V): T1 sequence (Q9F2F0 1-203) with G70V
Procedure: as §1, §2, §3, §4

[3] = target: T3, Streptococcus pneumoniae peptide deformylase G70D mutant (Streptococcus pneumoniae serotype 4, UniProt Q9F2F0, G70D); experiment: Inhibition of S. pneumoniae peptide deformylase activity, G70D mutant enzyme; type: biochemical; details: PDF G70D
T3 sequence (Q9F2F0 1-203 G70D): T1 sequence (Q9F2F0 1-203) with G70D
Procedure: as §1, §2, §3, §4

[4] = test system: Streptococcus pneumoniae (wild type PDF); experiment: MIC, culture growth of S. pneumoniae with wild type PDF; type: cell-based; details: PDF W.T.
Procedure: (§5) Minimum inhibitory concentrations (MICs) are determined using the microdilution method In 96-well format plates. Compounds are suspended in DMSO at 5 or 10 mg/mL and stored at 4° C. until used. They are diluted in Mueller-Hinton Broth (MHB) or Trypticase Soy Broth (TSB) and used for MIC determination. The range of concentrations tested is 64-0.0625 μg/mL final concentration using a two-fold dilution system.
(§6) The inoculum is prepared from cells grown on Trypticase Soy Agar (TSA) and incubated overnight at 35° C., 5-10 colonies are used to inoculate MHB or TSB broths, and the culture is incubated overnight at 35° C. The overnight culture is diluted 1:10, incubated for 1 hour at 35° C., diluted to the appropriate inoculum size and applied to the wells containing broth and test compound. Inoculum sizes are 2×10^4 CFU/mL.
as §4

[5] = test system: Streptococcus pneumoniae PDF G70V mutant; experiment: MIC, culture growth of S. pneumoniae PDF G70V mutant; type: cell-based; details: PDFG70VMUTANT
Procedure: as §5, §6, §4

[6] = test system: Streptococcus pneumoniae PDF G70D mutant; experiment: MIC, culture growth of S. pneumoniae PDF G70D mutant; type: cell-based; details: PDFG70DMUTANT
Procedure: as §5, §6, §4

For `CCCC[C@H](CN(O)C=O)C(=O)N1C[C@@H](C(C)C)C[C@H]1C(=O)Nc1ccc(F)c[n+]1[O-]`, the IC50 [1] was 0.23 ± 0.04 nM, the IC50 [2] was 1.78 nM and the IC50 [3] was 1.38 ± 0.78 nM. For the same compound, the MIC [4] was 1.42 ± 0.2 µg/mL (≈ 3.24 µM), the MIC [5] was 10.3 µg/mL (≈ 23.5 µM) and the MIC [6] was 10.3 µg/mL (≈ 23.4 µM).
`O=CN(O)C[C@@H](CC1CCCC1)C(=O)N1C[C@H](F)C[C@H]1C(=O)Nc1cnccn1` was tested, and the IC50 [1] was 0.25 ± 0.04 nM, the IC50 [2] was 0.5 nM and the IC50 [3] was 0.34 nM. It also gave an MIC [4] of 0.16 ± 0.1 µg/mL (≈ 0.393 µM), an MIC [5] of 0.33 µg/mL (≈ 0.81 µM) and an MIC [6] of 0.25 µg/mL (≈ 0.614 µM).
`CCCC[C@H](CN(O)C=O)C(=O)N1C[C@@H](C(C)C)C[C@H]1C(=O)Nc1ccc(F)cn1` showed an IC50 [1] of 0.31 ± 0.04 nM, an IC50 [2] of 1.01 nM and an IC50 [3] of 0.46 nM. The MIC [4] was 1.43 ± 0.2 µg/mL (≈ 3.38 µM), the MIC [5] was 2.86 µg/mL (≈ 6.77 µM) and the MIC [6] was 1.57 µg/mL (≈ 3.72 µM).
`CCCC[C@H](CN(O)C=O)C(=O)N1CCC[C@H]1C(=O)Nc1ccc(F)c[n+]1[O-]` [reference compound] gave an IC50 [1] of 0.31 ± 0.03 nM, an IC50 [2] of 1.35 nM and an IC50 [3] of 1.28 nM. For the same compound, the MIC [4] was 0.45 ± 0.07 µg/mL (≈ 1.14 µM), the MIC [5] was 5.8 µg/mL (≈ 14.6 µM) and the MIC [6] was 6.44 µg/mL (≈ 16.2 µM).
Compound `CCCC[C@H](CN(O)C=O)C(=O)N1C[C@H](C(C)C)C[C@H]1C(=O)Nc1ccc(F)cn1` has an IC50 [1] of 0.27 ± 0.03 nM, an IC50 [2] of 0.7 nM and an IC50 [3] of 0.25 nM. For the same compound, the MIC [4] was 0.71 ± 0.1 µg/mL (≈ 1.68 µM), the MIC [5] was 1.43 µg/mL (≈ 3.38 µM) and the MIC [6] was 1.07 µg/mL (≈ 2.53 µM).
Work on `CCCC[C@H](CN(O)C=O)C(=O)N1C[C@H](C(C)C)C[C@H]1C(=O)Nc1ccc(F)c[n+]1[O-]` yielded an IC50 [1] of 0.31 ± 0.03 nM, an IC50 [2] of 1.56 nM and an IC50 [3] of 1.19 nM. It also gave an MIC [4] of 0.64 ± 0.09 µg/mL (≈ 1.46 µM), an MIC [5] of 6.3 µg/mL (≈ 14.4 µM) and an MIC [6] of 5.14 µg/mL (≈ 11.7 µM).
With `O=CN(O)C[C@@H](CC1CCCC1)C(=O)N1C[C@H](F)C[C@H]1C(=O)Nc1cncc[n+]1[O-]` the IC50 [1] was 0.37 ± 0.02 nM, the IC50 [2] was 2.05 nM and the IC50 [3] was 0.91 nM. For the same compound, the MIC [4] was 0.29 ± 0.11 µg/mL (≈ 0.685 µM), the MIC [5] was 2.67 µg/mL (≈ 6.31 µM) and the MIC [6] was 1 µg/mL (≈ 2.36 µM).
